The source of these data is patent US6143766A, “Benzopyranone and quinolone inhibitors of ras farnesyl transferase” (Warner-Lambert Company, priority 2000, dated 2000).

Like-named read-outs stand apart in the source and are kept apart here.

Assay [1] has as its target T1, rat FPT (Rattus norvegicus, UniProt Q02293+Q04631).
T1 construct: made in house; host or cells: Sf9 insect cells
The assay can be described thus: PFT Inhibitory Activity (protein farnesyl transferase). It counts as biochemical. The conditions noted are these: 30° C., 30 minutes. The protocol:
The protein farnesyl transferase (PFT) or farnesyl protein transferase (FPT) inhibitory activity of compounds of the present invention were assayed in HEPES buffer (pH 7.4) containing 5 mM potassium phosphate and 20 μM ZnCl2. The solution also contained 5 mM DTT (dithiothreitol), 5 mM MgCl2, and 0.1% PEG 8000. Assays were performed in 96-well plates (Wallec, Finland) and employed solutions composed of varying concentrations of a compound of the present invention in 10% DMSO (dimethylsulfoxide). Upon addition of both substrates, radiolabeled farnesyl pyrophosphate ([1^3 H], specific activity 15-30 Ci/mmol, final concentration 134 nM) and (biotinyl)-Ahe-Thr-Lys-Cys-Val-Ile-Met ([3aS[3a α, 4 β, 6a α]-hexahydro-2-oxo-1H-thieno[3,4-d]imidazole-5-pentanoicacid]-[7-aminoheptanoic acid]-Thr-Lys-Cys-Val-Ile-Met). Ahe is 7-aminoheptanoic acid, Thr is threonine, Lys is lysine, Cys is cysteine, Val is valine, Ile is isoleucine, and Met is methionine (final concentration 0.2 μM); the enzyme reaction was started by addition of SF9 affinity purified rat FPT. After incubation at 30° C. for 30 minutes, the reaction was terminated by diluting the reaction 2.5-fold with a stop buffer containing 1.5 M magnesium acetate, 0.2 M H3 PO4, 0.5% BSA (bovine serum albumin), and strepavidin beads (Amersham, Arlington Heights, Ill.) at a concentration of 1.3 mg/mL. After allowing the plate to settle for 30 minutes at room temperature, radioactivity was quantitated on a microBeta counter (Model 1450, Wallec, Finland). The assay was also carried out without 5 mM potassium phosphate.

Assay [2] deals with ras protein in ras-transformed cells. The assay can be described thus: Mobility Shift Assay (ras farnesylation in ras-transformed cells). The following applies: 18-hour incubation, read-out: Mobility Shift MED. The assay is classed as cell-based. The protocol: Twenty-four hours after planting 2×10^6 ras-transformed cells per treatment condition, the farnesylation inhibitor is added at varying concentrations. Following an 18-hour incubation period, cells are lysed in phosphate-buffered saline containing 1% Triton X-100, 0.5% sodium deoxycholate, and 0.1% SDS (sodium dodecyl sulfate), pH 7.4 in the presence of several protease inhibitors (PMSF (phenylmethylsulfonylfluoride), antipain, leupeptin, pepstatin A, and aprotinin all at 1 μg/mL). Ras protein is immunoprecipitated from the supernatants by the addition of 3 μg v-H-ras Ab-2 (Y13-259 antibody from Oncogene Science, Cambridge, Mass.). After overnight immunoprecipitation, 30 μL of a 50% protein G-Sepharose slurry (Pharmacia, Uppsala, Sweden) is added followed by 45-minute incubation. Pellets are resuspended in 2X tris-glycine loading buffer (Novex, San Diego, Calif.) containing 5% mercaptoethanol and then denatured by 5 minutes boiling prior to electrophoresis on 14% Tris-glycine SDS gels. Using Western transfer techniques, proteins are transferred to nitrocellulose membranes followed by blocking in blocking buffer. Upon overnight incubation with primary antibody (pan-ras Ab-2 from Oncogene Science, Cambridge, Mass.), an antimouse HRP (horseradish peroxidase) conjugate secondary antibody (Amersham) is employed for detection of the ras protein. Blots are developed using ECL (enhanced chemiluminescence) techniques (Amersham, Arlington Heights, Ill.).

In assay [3] the test system is HT1080 human fibrosarcoma. The conditions noted are these: 100 mg/kg, xenografts in nude mice; cited from earlier work.
In assay [4] the test system is EJ-1 human bladder carcinoma. The following applies: 100 mg/kg, xenografts in nude mice; cited from earlier work.
Assay [5] relates to human colon carcinoma. The conditions noted are these: 100 mg/kg, xenografts in nude mice; cited from earlier work.
Assay [6] relates to human lung carcinoma with K-ras mutation and p53 deletion. The following applies: nude mice; cited from earlier work.
The test system of assay [7] is mammary and salivary carcinomas in ras transgenic mice. The conditions noted are these: daily administration; cited from earlier work.
[8] abbreviates: HEPES buffer pH 7.4 with 5 mM potassium phosphate, read-out: IC50 (μM) Hepes + 5 mM Phosphate.
The mark [9] stands for this setting: HEPES buffer pH 7.4 without 5 mM potassium phosphate, read-out: IC50 (μM) Hepes.

For orientation: IC50 means the concentration needed to halve the response being measured. In the case of `Cn1c(=O)cc(-c2cccc(Cl)c2)c2cc(OC(Cn3ccnc3)c3ccccc3)ccc21` (stereo not drawn) [Example 1, 4-(3-Chloro-phenyl)-6-(2-imidazol-1-yl-1-phenyl-ethoxy)-1-methyl-1H-quinolin-2-one], the figures for the IC50 in assay [1] (setting [8]) and in assay [1] (setting [9]) were 0.068 µM and 0.064 µM, respectively. In assay [2], the minimal effective concentration turned out to be 1 µM.

`Cn1c(=O)cc(-c2cccc(Cl)c2)c2ccc(OC(Cn3ccnc3)c3ccccc3)cc21` (stereo not drawn) [Example 2, 4-(3-Chloro-phenyl)-7-(2-imidazol-1-yl-1-phenyl-ethoxy)-1-methyl-1H-quinolin-2-one]: the IC50 in assay [1] (setting [8]) turned out to be 0.99 µM; in assay [1] (setting [9]) it was 0.7 µM. The minimal effective concentration in assay [2] was greater than 1 µM.

Regarding `Cn1c(=O)cc(-c2cccc(Cl)c2)c2cc(OCc3c[nH]cn3)ccc21` [Example 3, 4-(3-Chloro-phenyl)-6-(1H-imidazol-4-ylmethoxy)-1-methyl-1H-quinolin-2-one], the IC50 stood at 3.6 µM in assay [1] (setting [8]) and 9.8 µM in assay [1] (setting [9]).

For the molecule `Cn1cncc1C(Oc1ccc2c(c1)c(-c1cccc(Cl)c1)cc(=O)n2C)c1ccccc1` (stereo not drawn) [Example 4, 4-(3-Chloro-phenyl)-1-methyl-6-[(3-methyl-3H-imidazol-4-yl)-phenyl-methoxy]-1H-quinolin-2-one], the results for the IC50 in assay [1] (setting [8]) and in assay [1] (setting [9]) were 1.8 µM and 1.7 µM, respectively.

On to `O=c1cc(-c2ccccc2)c2ccc(OC(Cn3ccnc3)c3ccccc3)cc2o1` (stereo not drawn) [Example 5, 7-(2-Imidazol-1-yl-1-phenyl-ethoxy)-4-phenyl-chromen-2-one], for which the values for the IC50 in assay [1] (setting [8]) and in assay [1] (setting [9]) were 0.8 µM and 0.74 µM, respectively. Moreover, the minimal effective concentration in assay [2] amounted to 0.2 µM.

`O=c1cc(-c2cccc(Cl)c2)c2ccc(OC(Cn3ccnc3)c3ccccc3)cc2o1` (stereo not drawn) [Example 6, 4-(3-Chloro-phenyl)-7-(2-imidazol-1-yl-1-phenyl-ethoxy)-chromen-2-one]: the IC50 in assay [1] (setting [8]) turned out to be 0.32 µM; in assay [1] (setting [9]) it was 0.29 µM. For the same molecule, in assay [2], the minimal effective concentration amounted to 1 µM.

`Cc1cccc(-c2cc(=O)oc3cc(OC(Cn4ccnc4)c4ccccc4)ccc23)c1` (stereo not drawn) [Example 7, 7-(2-Imidazol-1-yl-1-phenyl-ethoxy)-4-m-tolyl-chromen-2-one]: the IC50 in assay [1] (setting [8]) amounted to 1.4 µM; in assay [1] (setting [9]), 0.5 µM.

Consider `Cc1ccccc1-c1cc(=O)oc2cc(OC(Cn3ccnc3)c3ccccc3)ccc12` (stereo not drawn) [Example 8, 7-(2-Imidazol-1-yl-1-phenyl-ethoxy)-4-o-tolyl-chromen-2-one], for which the IC50 turned out to be 0.92 µM in assay [1] (setting [8]) and 0.98 µM in assay [1] (setting [9]).

As for `O=c1cc(-c2ccc(Cl)cc2)c2ccc(OC(Cn3ccnc3)c3ccccc3)cc2o1` (stereo not drawn) [Example 9, 4-(4-Chloro-phenyl)-7-(2-imidazol-1-yl-1-phenyl-ethoxy)-chromen-2-one], the IC50 in assay [1] (setting [8]) turned out to be 1.6 µM; in assay [1] (setting [9]), 1.8 µM.

Consider `O=c1cc(-c2ccccc2Cl)c2ccc(OC(Cn3ccnc3)c3ccccc3)cc2o1` (stereo not drawn) [Example 10, 4-(2-Chloro-phenyl)-7-(2-imidazol-1-yl-1-phenyl-ethoxy)-chromen-2-one], for which the IC50 in assay [1] (setting [8]) amounted to 0.29 µM; in assay [1] (setting [9]) it was 0.14 µM. Further, in assay [2], the minimal effective concentration was greater than 0.2 µM.

Turning to `Cc1ccc(-c2cc(=O)oc3cc(OC(Cn4ccnc4)c4ccccc4)ccc23)cc1` (stereo not drawn) [Example 11, 7-(2-imidazol-1-yl-1-phenyl-ethoxy)-4-p-totyl-chromen-2-one], the IC50 in assay [1] (setting [8]) worked out at 0.52 µM; in assay [1] (setting [9]), 0.67 µM. For the same molecule, the minimal effective concentration in assay [2] came out at 1 µM.

As for `C=CCc1c(OC(Cn2ccnc2)c2ccccc2)ccc2c(-c3ccccc3)cc(=O)oc12` (stereo not drawn) [Example 12, 8-allyl-7-(2-imidazol-1-yl-1-phenyl-ethoxy)-4-phenyl-chromen-2-one], the IC50 turned out to be 0.64 µM in assay [1] (setting [8]) and 0.63 µM in assay [1] (setting [9]). The minimal effective concentration in assay [2] is greater than 1 µM.

Regarding `COC(=O)[C@H](CCSC)NC(=O)[C@H](/C=C\[C@@H](/C=C/[C@@H](N)CS)C(C)C)Cc1ccccc1` [Example B1086], the tumor growth inhibition entry in assay [3], in assay [4] and in assay [5] was “inhibit tumor growth” throughout.

Consider `CSCC[C@H](NC(=O)c1ccc(NC[C@@H](N)CS)cc1-c1ccccc1)C(=O)O` [FT1276], for which, in assay [6], the “block of tumor growth” value is “selectively block tumor growth”.

On to `CC[C@H](C)[C@@H](CO[C@@H](Cc1ccccc1)C(=O)N[C@@H](CCS(C)(=O)=O)C(=O)OC(C)C)NC[C@@H](N)CS` [L-744,832], for which the tumor regression entry in assay [7] is given as “caused tumor regression”.
